Assay results published in US20070026505A1, “Amino acid and metabolite biosynthesis” (priority 2005, published 2007).

Tests used:
C. glutamicum MetA = target: T1, C. glutamicum MetA (Corynebacterium glutamicum, UniProt O68640); test: MetA (in vitro O-acetyltransferase) activity in crude protein extracts, C. glutamicum MetA; format: biochemical
T1 construct: contain both endogenous and episomal C. glutamicum MetA and MetY genes; expressed in transfected cells; host or cells: C. glutamicum MA-442 (plasmid MB-4135, metA-metY) and MA-449 (MB-4138, metY-metA), both MA-428 / ATCC 13032 derivatives; crude protein extract
Protocol: MetA activity in C. glutamicum expressing endogenous and episomal metA genes was determined. MetA activity was assayed in crude protein extracts using a protocol described by Kredich and Tomkins (J. Biol. Chem.241(21): 4955-4965, 1966). […] Briefly, 1 μg of protein extract was added to a microtiter plate. Reaction mix (250 μl; 100 mM tris-HCl pH 7.5, 2 mM 5,5′-Dithiobis(2-nitrobenzoic acid) (DTN), 2 mM sodium EDTA, 2 mM acetyl CoA, 2 mM homoserine) was added to each well of the microtiter plate. In the course of the reactions, MetA activity liberates CoA from acetyl-CoA. A disulfide interchange occurs between the CoA and DTN to produce thionitrobenzoic acid. The production of thionitrobenzoic acid is followed spectrophotometrically. Absorbance at 412 nm was measured every 5 minutes over a period of 30 minutes. A well without protein extract was included as a control. […] Inhibitors were added directly to the reaction mix before it was added to the protein extract.
Experiments were performed in the presence and absence of IPTG that induces expression of the plasmid borne MetA and MetY genes.

[1] = test system: O-Acetylhomoserine sulfhydrylase (MetY); conditions: grown in the presence of 0.5 mM methionine; cited from earlier work

T1 sequence (O68640 whole entry): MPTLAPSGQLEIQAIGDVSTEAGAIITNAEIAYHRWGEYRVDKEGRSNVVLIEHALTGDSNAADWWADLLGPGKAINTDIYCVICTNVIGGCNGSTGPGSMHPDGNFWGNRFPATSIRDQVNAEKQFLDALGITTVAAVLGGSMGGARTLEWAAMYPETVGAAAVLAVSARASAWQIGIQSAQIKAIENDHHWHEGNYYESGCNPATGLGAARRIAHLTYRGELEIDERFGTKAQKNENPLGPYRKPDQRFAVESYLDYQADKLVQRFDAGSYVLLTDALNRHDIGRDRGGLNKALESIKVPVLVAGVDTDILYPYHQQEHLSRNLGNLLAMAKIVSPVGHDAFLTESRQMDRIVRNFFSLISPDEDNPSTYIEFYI

Structure (SMILES)	MetA activity of MA-442 extracts in presence of methionine (C. glutamicum MetA; 5 mM methionine)	reduction in MetY enzyme activity [1]	MetA activity of MA-442 extracts in presence of S-AM (C. glutamicum MetA; 0.2 mM S-AM)
CSCC[C@H](N)C(=O)O [methionine]	reduced	99%	
C[S+](CC[C@H](N)C(=O)[O-])C[C@H]1O[C@@H](n2cnc3c(N)ncnc32)[C@H](O)[C@@H]1O (stereo partly drawn) [S-AM, S-adenosyl methionine]			reduced
